Consider one compound from US20100069340A1, “PHARMACEUTICAL COMPOSITIONS OF AN SRC KINASE INHIBITOR AND AN AROMATASE INHIBITOR” (Wyeth, priority 2008, published 2010).

Common to all, as to assay type: cell-based
One experiment concerns MDA-MB-468 (ER neg). Nature of the experiment: Cell proliferation assay, MDA-MB-468. Particulars: Homo sapiens, MDA-MB-468, 72 h; 3 Day assay, complete medium (10% FCS). As to the method: (§1) Cell lines were obtained from ATCC. Estrogen was obtained from SIGMA, 4-hydroxytamoxifen was obtained from SIGMA, Bosutinib was used for these studies. Charcoal-stripped serum and phenol red-free medium was obtained from Invitrogen. CellTiter Glo was obtained from Promega.
Cell cultures. Proliferation assays with cells in complete fetal calf serum were performed with medium containing phenol red. For all assays examining estrogen-dependence, cells were cultured in phenol red-free medium; DMEM/F12 (MCF7), RPMI1640 (MDA-MB-361, T47D) MEM (BT20, MDA-MB-231) McCoys5A modified (SKBR3), Leibowitz' L15 medium supplemented with 10 ng/mL insulin (MDA-MB-435 and MDA-MB-468) with 10% fetal bovine serum supplemented with glutamine and gentamicin. For proliferation assays, trypsinized cells were subjected to three cycles of centrifugation and resuspension in phenol red-free medium supplemented with charcoal stripped medium (5% final), glutamine and Pen/Strep. Cells were plated on day 0, with or without estrogen (10 nM final concentration). On day 1, 4-hydroxytamoxifen and SKI-606 or DMSO were added as a serial dilution. […] After mixing and two hours incubation on the bench, plates were read on an Envision reader. […] The 10 uM data point was dropped for these two lines since there was a clear plateau prior to the sharp drop in luminescence observed at 10 uM compound. […]

Another experiment concerns SKBR3 (ER neg). As to the kind of experiment: Cell proliferation assay (CellTiter Glo), SKBR3. The following applies: Homo sapiens. As to the method: as §1
Cell cultures. Proliferation assays with cells in complete fetal calf serum were performed with medium containing phenol red. For all assays examining estrogen-dependence, cells were cultured in phenol red-free medium; DMEM/F12 (MCF7), RPMI1640 (MDA-MB-361, T47D) MEM (BT20, MDA-MB-231) McCoys5A modified (SKBR3), Leibowitz' L15 medium supplemented with 10 ng/mL insulin (MDA-MB-435 and MDA-MB-468) with 10% fetal bovine serum supplemented with glutamine and gentamicin. For proliferation assays, trypsinized cells were subjected to three cycles of centrifugation and resuspension in phenol red-free medium supplemented with charcoal stripped medium (5% final), glutamine and Pen/Strep. Cells were plated on day 0, with or without estrogen (10 nM final concentration). On day 1, 4-hydroxytamoxifen and SKI-606 or DMSO were added as a serial dilution. Cells were incubated for 7 days, after which CellTiter Glo (Promega) was added as recommended by the manufacturer. After mixing and two hours incubation on the bench, plates were read on an Envision reader. […] The IC50 was calculated using a floating minima corresponding to the lowest luminescence value at 5 uM.
Cell proliferation assays were performed in two formats; a three day proliferation assay in fully supplemented medium with phenol red, and a 7 day proliferation assay in phenol red free medium supplemented with charcoal-stripped medium.
The complete medium data were obtained in 3-day assays, while stripped serum assays were extended for 7 days with one change of medium at day 5.
On the technique in general: Cellular ATP, detected with luciferase, serves as a proxy for viable cell number.

The next experiment deals with ER. As to the kind of experiment: ER signaling in MCF-7 cells (ERE-tk-luciferase, ERα levels). As to the method:
Radis Procedure 2484, MCF-7 model was used for the measurement of in vitro estrogenic activity. MCF-7 cells were passaged twice a week in D-MEM/F-12 medium containing 10% (v/v) heat-inactivated fetal bovine serum, 1% (v/v) Penicillin-Streptomycin, and 2 mM glutaMax-1. The cells were plated with growth medium at 25,000/well into 96 well plates and incubated at 37° C. overnight.
The cells were infected for 2 hr at 37° C. with 50 μl/well of a 1:10 dilution of adenovirus 5-ERE-tk-luciferase in phenol red-free D-MEM/F-12 medium containing 10% (v/v) heat-inactived charcoal-stripped fetal bovine serum, 1% (v/v) Penicillin-Streptomycin, 2 mM glutaMax-1, 1 mM sodium pyruvate. The wells are then washed once with 150 μl of experimental medium. Finally, the cells are treated for 24 hr at 37° C. in replicates of 8 wells/treatment with 150 μl/well of vehicle (<0.1% v/v DMSO) or compound that is diluted >1000-fold into experimental medium. SKI-606 was tested in a dose response assay in the presence of 0.1 nM 17β-estradiol to stimulate ERE-luc.
After treatment, the cells are lysed on a shaker for 15 min with 25 μl/well of 1× cell culture lysis reagent (Promega Corporation). The cell lysates (20 μl) were transferred to a 96 well luminometer plate, and luciferase activity were measured in a MicroLumat LB 96 P luminometer (EG & G Berthold) using 100 μl/well of luciferase substrate (Promega Corporation). […]

Read-outs that look alike come from different tables or passages of the source.

Consider `COc1cc(Nc2c(C#N)cnc3cc(OCCCN4CCN(C)CC4)c(OC)cc23)c(Cl)cc1Cl` [bosutinib], for which the 50% inhibitory concentration (IC50) (as a rule, the concentration at which inhibition is half-maximal) in the experiment on MDA-MB-468 (ER neg) was determined as 5 µM; with SKBR3 (ER neg) (SK-BR-3, 72 h, 3 Day assay, complete medium (10% FCS), read-out: IC50 (uM) 10% FCS) it was 1.5 µM; in the experiment on SKBR3 (ER neg) (SK-BR-3, 168 h, 7 Day assay, charcoal stripped serum, no phenol red, 10 nM estrogen, read-out: IC50 (uM) E2) it was 1.38 µM; in the experiment on SKBR3 (ER neg) (SK-BR-3, 168 h, 7 Day assay, charcoal stripped serum, no phenol red, without estrogen, read-out: IC50 (uM) no E2), 1.43 µM. In the experiment with ER, the “genomic and non-genomic signaling by ER” value is “inhibits both genomic and non-genomic signaling by ER”.
